These results are taken from PMC6017816, “Sesquiterpene Lactones from Vernonia cinerascens Sch. Bip. and Their in Vitro Antitrypanosomal Activity” (Molecules : A Journal of Synthetic Chemistry and Natural …, 2018).

Data set [1] in a line: in vitro cytotoxicity against mammalian cells (L6). Type of data set: cell-based, rat. Here is the method:
(§1) The dichloromethane (CH2Cl2) extract obtained from leaves of V. cinerascens was tested for in vitro antiprotozoal activity against Trypanosoma brucei rhodesiense (Tbr) (STIB 900 strain) trypomastigotes, T. cruzi (Tcr) (Tulahuen C4 strain) amastigotes, Leishmania donovani (Ldon) (MHOM-ET-67/L82 strain) axenic amastigotes, and Plasmodium falciparum (Pf) (NF54 strain) intra-erythrocytic forms. It was also evaluated for in vitro cytotoxicity against mammalian cells, specifically the rat-skeletal myoblast cell line L6. […] Therefore, the CH2Cl2 extract was fractionated by silica gel column chromatography and representative fractions were subjected to bioactivity testing against Tbr (STIB 900 strain) trypomastigotes.
(§2) In vitro bioactivity tests were performed as previously described against Tbr (bloodstream trypomastigotes, STIB 900 strain), Tcr (amastigotes, Tulahuen C4 strain), Ldon (axenic amastigotes, MHOM-ET-67/L82 strain), and Pf (intraerythrocytic forms, NF54 strain), and the cytotoxicity test was conducted against mammalian cells (L6 cell line from rat-skeletal myoblasts) at the Swiss Tropical and Public Health Institute (Swiss TPH, Basel, Switzerland).

In data set [2] the test system is Trypanosoma brucei rhodesiense (Tbr) (STIB 900 strain) trypomastigotes. As to the kind of experiment: in vitro activity against Trypanosoma brucei rhodesiense bloodstream trypomastigotes. The data set is classed as cell-based. The settings on record: for IC50: Trypanosoma brucei, read-out: Tbr IC50; for SI (selectivity index): cytotoxicity L6 IC50 versus Tbr IC50. Here is the method: as §1, §2

Data set [3] has the same test system. The arrangement: method as in PMID 28397756. The settings on record: isolated from V. lasiopus in previous study; read-out: in vitro antiTbr activity IC50; cited from earlier work.
Setting [4] is: bloodstream trypomastigotes, STIB 900 strain, means of two independent determinations ± absolute deviation.
The mark [5] stands for this setting: L6 cell line from rat-skeletal myoblasts, means of two independent determinations ± absolute deviation, read-out: Cytotoxicity IC50.

Where two headings read alike, the source gives them in different places.

Usually IC50 stands for the concentration that gives 50% inhibition. Take `C=C[C@@]12COC(=O)C(=C)[C@@H]1[C@H]1OC(=O)[C@@H](C)[C@@H]1[C@@H](OC(=O)C(=C)CO)C2` [Compound 3, 11β,13-dihydrovernodalin]: the IC50 in data set [1] (rat) came out at 4.7 ± 0.4 µM; in data set [2] (setting [4]) it was 1.1 ± 0.3 µM. For the same compound, the “SI (selectivity index)” value in data set [2] worked out at 4.2.
The matching figures for `C=C(CO)C(=O)O[C@H]1C[C@@]2(CO)O[C@@H]2CC/C(C=O)=C/[C@H]2OC(=O)C(=C)[C@H]12` [Compound 8, vernocinerascolide]: 128 ± 1 µM, 4.8 ± 1.1 µM and 27.
The matching figures for `C=C(CO)C(=O)OC1CC23OC2CCC(=CC2OC(=O)C(=C)C21)COC3O` (stereo not drawn) [Compound 7, hydroxyvernolide]: 22 ± 1 µM, 5 µM and 4.3.
Take `COc1cc([C@@H]2c3cc4c(cc3[C@H](O)[C@H]3COC(=O)[C@H]23)OCO4)cc(OC)c1OC` [podophyllotoxin, reference compound]: in data set [1] (setting [5]), the IC50 worked out at 0.007 ± 0.001 µM.
Turning to `C=C(C)C(=O)OC1CC23OC2CCC(=CC2OC(=O)C(C)C21)COC3O` (stereo not drawn) [Compound 4, 11β,13-dihydrovernolide], the IC50 in data set [1] (setting [5]) was found to be 13 ± 2 µM; in data set [2] (setting [4]) it was 17 µM. Besides, the “SI (selectivity index)” value in data set [2] came out at 0.8.
With `C=C(CO)C(=O)OC1CC23OC2CCC(=CC2OC(=O)C(C)C21)COC3O` (stereo not drawn) [Compound 6, 11β,13-dihydrohydroxyvernolide], the IC50 in data set [1] (rat) was found to be 49 ± 1 µM; in data set [2] (setting [4]), 15 µM. The “SI (selectivity index)” value in data set [2] worked out at 3.2.
The matching figures for `C=C[C@@]12COC(=O)C(=C)[C@@H]1[C@H]1OC(=O)C(=C)[C@@H]1[C@@H](OC(=O)C(=C)CO)C2` [Compound 2, vernodalin]: 5.6 µM, 0.16 ± 0.04 µM and 35.
Take vernodalol [Compound 1]: the IC50 in data set [3] is 0.26 µM.
Regarding `Nc1nc(N)nc(Nc2ccc([As]3SCC(CO)S3)cc2)n1` (stereo not drawn) [melarsoprol, reference compound], the IC50 in data set [2] was found to be 0.003 ± 0.001 µM.
Regarding `C=C(C)C(=O)OC1CC23OC2CCC(=CC2OC(=O)C(=C)C21)COC3O` (stereo not drawn) [Compound 5, vernolide], the IC50 in data set [1] (setting [5]) is 6.9 µM; in data set [2] (setting [4]) it was 0.5 ± 0.01 µM. For the same compound, the “SI (selectivity index)” value in data set [2] was found to be 13.
